Drawing on patent publication US8178668B2, “2-aminopyridine kinase inhibitors” (OSI Pharmaceuticals, LLC, priority 2008, dated 2012), this text covers IC50 for 30 molecules.

Counter-ions that a name gives are not always drawn.

The term IC50 denotes the concentration that gives 50% inhibition.

One assay has as its target RON (human) (Homo sapiens, UniProt Q04912). In words: RON kinase AlphaScreen assay (Km of ATP). In kind it is biochemical. Particulars: ATP at Km; at least duplicate experiments. The method in brief: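 AlphaScreen with PT66 donor/acceptor beads, read after 1 h, detected phosphorylation of biotinylated poly(Glu,Tyr) by human RON. Enzyme-started reactions ran 30 min at room temperature with ATP at Km. Buffer was HEPES pH 7.4 with MgCl2, glycerol, vanadate and 1% DMSO.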
(In general: Alpha assays give light when donor and acceptor beads are brought close together.)

The next assay concerns the target MET (human) (Homo sapiens, UniProt P08581). Nature of the assay: MET kinase AlphaScreen assay (Km of ATP). In kind it is biochemical. Particulars: ATP at Km; at least duplicate experiments. The method in brief:
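AlphaScreen detection with PT66 beads (1 h) follows a 60 min room-temperature MET reaction. Substrate is 200 ng/μL biotinylated poly(Glu,Tyr), with ATP set at an enzyme-optimized concentration. Buffer is HEPES pH 7.4 with MgCl2, MnCl2 and 0.334 mM vanadate, compounds at 1% DMSO.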

RON (human), sequence (Q04912 25-1400): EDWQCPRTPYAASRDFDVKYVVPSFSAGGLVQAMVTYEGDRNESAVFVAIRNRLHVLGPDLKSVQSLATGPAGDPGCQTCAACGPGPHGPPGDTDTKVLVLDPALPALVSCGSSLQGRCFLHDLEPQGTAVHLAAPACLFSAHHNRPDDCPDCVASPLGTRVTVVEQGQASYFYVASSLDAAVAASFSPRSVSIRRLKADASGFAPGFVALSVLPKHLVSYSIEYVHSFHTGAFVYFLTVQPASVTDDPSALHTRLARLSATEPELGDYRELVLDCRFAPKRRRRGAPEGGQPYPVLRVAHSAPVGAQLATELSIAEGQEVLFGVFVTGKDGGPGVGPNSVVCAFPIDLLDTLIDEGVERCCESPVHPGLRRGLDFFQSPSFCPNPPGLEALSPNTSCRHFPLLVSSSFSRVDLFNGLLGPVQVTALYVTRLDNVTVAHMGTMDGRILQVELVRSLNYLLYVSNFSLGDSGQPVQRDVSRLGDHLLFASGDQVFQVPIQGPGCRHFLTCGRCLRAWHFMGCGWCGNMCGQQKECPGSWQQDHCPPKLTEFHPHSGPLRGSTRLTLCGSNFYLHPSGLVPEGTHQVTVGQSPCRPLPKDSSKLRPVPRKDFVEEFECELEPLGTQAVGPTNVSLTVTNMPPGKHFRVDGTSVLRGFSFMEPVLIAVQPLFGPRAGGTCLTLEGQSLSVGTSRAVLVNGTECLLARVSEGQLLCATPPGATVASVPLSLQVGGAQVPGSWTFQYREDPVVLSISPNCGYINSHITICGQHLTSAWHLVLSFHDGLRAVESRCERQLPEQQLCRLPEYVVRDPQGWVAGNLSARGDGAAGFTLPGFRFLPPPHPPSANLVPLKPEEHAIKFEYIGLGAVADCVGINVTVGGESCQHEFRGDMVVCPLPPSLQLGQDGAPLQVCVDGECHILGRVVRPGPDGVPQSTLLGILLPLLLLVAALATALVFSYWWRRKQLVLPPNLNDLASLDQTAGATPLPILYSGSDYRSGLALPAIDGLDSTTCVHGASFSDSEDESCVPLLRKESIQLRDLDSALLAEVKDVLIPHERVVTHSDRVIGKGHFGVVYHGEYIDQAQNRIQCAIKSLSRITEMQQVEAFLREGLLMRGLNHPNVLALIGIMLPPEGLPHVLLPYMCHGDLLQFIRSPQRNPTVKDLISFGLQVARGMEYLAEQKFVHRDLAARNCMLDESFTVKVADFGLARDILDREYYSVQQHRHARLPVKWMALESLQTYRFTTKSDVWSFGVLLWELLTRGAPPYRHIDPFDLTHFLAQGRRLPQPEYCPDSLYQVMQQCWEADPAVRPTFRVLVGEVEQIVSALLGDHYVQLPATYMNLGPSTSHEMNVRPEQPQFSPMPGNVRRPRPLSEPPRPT
MET (human), sequence (P08581 25-1390): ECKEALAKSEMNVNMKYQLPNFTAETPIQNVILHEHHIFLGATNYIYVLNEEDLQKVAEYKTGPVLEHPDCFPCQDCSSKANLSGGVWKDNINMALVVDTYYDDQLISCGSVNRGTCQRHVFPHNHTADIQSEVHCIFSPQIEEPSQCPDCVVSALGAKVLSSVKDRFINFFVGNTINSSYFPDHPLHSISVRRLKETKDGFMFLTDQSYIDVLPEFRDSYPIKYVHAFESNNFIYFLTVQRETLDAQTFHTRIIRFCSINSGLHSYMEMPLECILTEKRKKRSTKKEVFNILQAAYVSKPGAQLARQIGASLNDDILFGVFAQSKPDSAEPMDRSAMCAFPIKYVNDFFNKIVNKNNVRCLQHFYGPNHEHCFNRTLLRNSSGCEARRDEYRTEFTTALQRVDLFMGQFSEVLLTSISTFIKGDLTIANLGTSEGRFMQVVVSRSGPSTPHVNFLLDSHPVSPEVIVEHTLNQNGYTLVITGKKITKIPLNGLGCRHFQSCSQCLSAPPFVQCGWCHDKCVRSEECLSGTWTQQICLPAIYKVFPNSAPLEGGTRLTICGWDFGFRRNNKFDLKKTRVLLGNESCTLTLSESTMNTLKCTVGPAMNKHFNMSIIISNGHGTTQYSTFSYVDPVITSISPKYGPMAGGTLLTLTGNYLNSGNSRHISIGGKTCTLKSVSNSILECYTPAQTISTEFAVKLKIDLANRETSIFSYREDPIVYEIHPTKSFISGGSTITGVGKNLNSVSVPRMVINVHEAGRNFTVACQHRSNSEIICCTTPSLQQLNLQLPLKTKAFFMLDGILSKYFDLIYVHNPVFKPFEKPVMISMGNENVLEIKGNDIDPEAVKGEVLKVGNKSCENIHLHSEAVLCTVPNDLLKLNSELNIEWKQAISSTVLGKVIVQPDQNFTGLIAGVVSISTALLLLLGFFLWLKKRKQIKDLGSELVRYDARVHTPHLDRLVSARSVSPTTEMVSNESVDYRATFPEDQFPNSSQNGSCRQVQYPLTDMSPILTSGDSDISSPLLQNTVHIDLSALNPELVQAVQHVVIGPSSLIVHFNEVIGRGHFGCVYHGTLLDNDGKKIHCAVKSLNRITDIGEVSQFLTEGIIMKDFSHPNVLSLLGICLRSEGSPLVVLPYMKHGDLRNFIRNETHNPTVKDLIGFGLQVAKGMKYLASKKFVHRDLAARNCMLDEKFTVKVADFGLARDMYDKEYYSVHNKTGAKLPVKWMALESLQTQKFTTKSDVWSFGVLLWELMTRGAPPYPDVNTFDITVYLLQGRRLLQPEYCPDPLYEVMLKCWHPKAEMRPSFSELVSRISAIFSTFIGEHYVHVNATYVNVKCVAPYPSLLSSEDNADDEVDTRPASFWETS

For `Nc1ncc(-c2cnn(C3CCNCC3)c2)cc1-c1cc2c(Cl)c(F)cc(F)c2cn1` [Example 15, 3-(5-Chloro-6,8-difluoroisoquinolin-3-yl)-5-(1-piperidin-4-yl-1H-pyrazol-4-yl)-pyridin-2-ylamine trihydrochloride salt], the figures for the IC50 against RON (human) and on MET (human) were 100 to 1000 nM and no more than 100 nM, respectively.

For `CN1CCN(C(=O)c2cccc(-c3cnc(N)c(-c4nc5ccccc5s4)c3)c2)CC1` [Example 184, [3-(6-Amino-5-benzothiazol-2-ylpyridin-3-yl)phenyl]-(4-methylpiperazin-1-yl)methanone], the concentration for half-maximal inhibition (IC50) on RON (human) and on MET (human) was 1000 to 20000 nM throughout.

Take `COCCN(CCOC)C(=O)c1cccc(-c2cnc(N)c(-c3nc4ccccc4s3)c2)c1` [Example 216, 3-(6-Amino-5-benzothiazol-2-ylpyridin-3-yl)-N,N-bis-(2-methoxyethyl)benzamide]: the concentration for half-maximal inhibition (IC50) against RON (human) and against MET (human) was greater than 20000 nM throughout.

Regarding `NC(=O)c1cccc(-c2cnc(N)c(-c3nc4ccccc4s3)c2)c1` [Example 196, 3-(6-Amino-5-benzothiazol-2-ylpyridin-3-yl)benzamide], the 50% inhibitory concentration (IC50) against RON (human) and on MET (human) was 1000 to 20000 nM each time.

Regarding `COCCNC(=O)CCn1cc(-c2cnc(N)c(-c3nc4ccccc4s3)c2)cn1` [Example 292, 3-[4-(6-Amino-5-benzothiazol-2-ylpyridin-3-yl)-pyrazol-1-yl]-N-(2-methoxyethyl)-propionamide], the results for the 50% inhibitory concentration (IC50) against RON (human) and against MET (human) were greater than 20000 nM and 1000 to 20000 nM, respectively.

For `CCN(CC)CCNC(=O)c1cccc(-c2cnc(N)c(-c3nc4ccccc4s3)c2)c1` [Example 207, 3-(6-Amino-5-benzothiazol-2-ylpyridin-3-yl)-N-(2-diethylaminoethyl)benzamide], the IC50 against RON (human) and against MET (human) was 1000 to 20000 nM in each case.

Regarding `Nc1ncc(-c2cnn(C3CCNCC3)c2)cc1-c1nc2c(F)c(F)ccc2s1` [Example 274, 3-(4,5-Difluorobenzothiazol-2-yl)-5-(1-piperidin-4-yl-1H-pyrazol-4-yl)-pyridin-2-ylamine], the IC50 against RON (human) is 100 to 1000 nM; at MET (human), no more than 100 nM.

For the molecule `Nc1ncc(-c2cccc(C(=O)NCc3ccco3)c2)cc1-c1nc2ccccc2s1` [Example 192, 3-(6-Amino-5-benzothiazol-2-ylpyridin-3-yl)-N-furan-2-ylmethylbenzamide], the concentration for half-maximal inhibition (IC50) at RON (human) and at MET (human) was 1000 to 20000 nM each time.

As to `Nc1ncc(-c2cnn(CC(=O)N3CCC(O)C3)c2)cc1-c1nc2ccccc2s1` (stereo not drawn) [Example 135, 2-[4-(6-Amino-5-benzothiazol-2-ylpyridin-3-yl)-pyrazol-1-yl]-1-(3-hydroxypyrrolidin-1-yl)-ethanone], the IC50 on RON (human) and against MET (human) was 1000 to 20000 nM throughout.

Consider `Nc1ncc(-c2cnn(C3CCNCC3)c2)cc1-c1ccc2ccccc2c1` [Example 304, 3-Naphthalen-2-yl-5-(1-piperidin-4-yl-1H-pyrazol-4-yl)-pyridin-2-ylamine trihydrochloride], for which the half-maximal inhibitory concentration (IC50) against RON (human) lay in the range of 1000 to 20000 nM; on MET (human) it was 100 to 1000 nM.

As for `N#Cc1cccc2cc(-c3cc(-c4cnn(C5CCNCC5)c4)cnc3N)ncc12` [Example 36, 3-[2-Amino-5-(1-piperidin-4-yl-1H-pyrazol-4-yl)-pyridin-3-yl]-isoquinoline-8-carbonitrile trihydrochloride salt], the concentration for half-maximal inhibition (IC50) at RON (human) and at MET (human) was 100 to 1000 nM in each case.

Take `NC(=O)CN1CCC(n2cc(-c3cnc(N)c(-c4nc5ccccc5s4)c3)cn2)CC1` [Example 162, 2-{4-[4-(6-Amino-5-benzothiazol-2-ylpyridin-3-yl)-pyrazol-1-yl]-piperidin-1-yl}-acetamide]: the half-maximal inhibitory concentration (IC50) against RON (human) is 100 to 1000 nM; against MET (human), no more than 100 nM.

As to `Nc1ncc(-c2cnn(C3CCNCC3)c2)cc1-c1cc2c(Cl)ccc(Cl)c2cn1` [Example 9, 3-(5,8-Dichloroisoquinolin-3-yl)-5-(1-piperidin-4-yl-1H-pyrazol-4-yl)-pyridin-2-ylamine trihydrochloride], the values for the half-inhibitory concentration (IC50) on RON (human) and against MET (human) were 100 to 1000 nM and no more than 100 nM, respectively.

With `COCCN(CCOC)C(=O)Cn1cc(-c2cnc(N)c(-c3nc4ccccc4s3)c2)cn1` [Example 138, 2-[4-(6-Amino-5-benzothiazol-2-ylpyridin-3-yl)-pyrazol-1-yl]-N,N-bis-(2-methoxyethyl)-acetamide], the concentration for half-maximal inhibition (IC50) against RON (human) and on MET (human) was 1000 to 20000 nM throughout.

Take `Cc1nc(-c2cc(-c3cnn(C4CCNCC4)c3)cnc2N)cc2ccccc12` [Example 1, 3-(1-Methylisoquinolin-3-yl)-5-(1-piperidin-4-yl-1H-pyrazol-4-yl)-pyridin-2-ylamine trihydrochloride]: the IC50 against RON (human) and against MET (human) was 1000 to 20000 nM each time.

`Cc1ccc(C)c2cc(-c3cc(-c4cnn(C5CCNCC5)c4)cnc3N)ncc12` [Example 20, 3-(5,8-Dimethylisoquinolin-3-yl)-5-(1-piperidin-4-yl-1H-pyrazol-4-yl)-pyridin-2-ylamine trihydrochloride salt]: the IC50 against RON (human) and at MET (human) was 100 to 1000 nM throughout.

In the case of `Nc1ncc(-c2cnn(C3CCNCC3)c2)cc1-c1cc2cc(F)cc(F)c2cn1` [Example 46, 3-(6,8-Difluoroisoquinolin-3-yl)-5-(1-piperidin-4-yl-1H-pyrazol-4-yl)-pyridin-2-ylamine trihydrochloride salt], the figures for the IC50 at RON (human) and on MET (human) were 1000 to 20000 nM and 100 to 1000 nM, respectively.

`CNC(=O)CN1CCC(n2cc(-c3cnc(N)c(-c4nc5ccccc5s4)c3)cn2)CC1` [Example 163, 2-{4-[4-(6-Amino-5-benzothiazol-2-ylpyridin-3-yl)-pyrazol-1-yl]-piperidin-1-yl}-N-methylacetamide]: the IC50 on RON (human) and at MET (human) was 100 to 1000 nM in each case.

`Nc1ncc(-c2cnn(C3CCNCC3)c2)cc1-c1nc2c(Cl)cccc2s1` [Example 278, 3-(4-Chlorobenzothiazol-2-yl)-5-(1-piperidin-4-yl-1H-pyrazol-4-yl)-pyridin-2-ylamine]: the IC50 on RON (human) is 100 to 1000 nM; at MET (human) it was no more than 100 nM.

Regarding `Nc1ncc(-c2cnn(C3CCNCC3)c2)cc1-c1cc2cccc(Br)c2cn1` [Example 24, 3-(8-Bromoisoquinolin-3-yl)-5-(1-piperidin-4-yl-1H-pyrazol-4-yl)-pyridin-2-ylamine trihydrochloride salt], the half-maximal inhibitory concentration (IC50) against RON (human) and against MET (human) was 100 to 1000 nM throughout.

`Nc1ncc(-c2cccc(C(=O)N3CCCC(O)C3)c2)cc1-c1nc2ccccc2s1` (stereo not drawn) [Example 213, [3-(6-Amino-5-benzothiazol-2-ylpyridin-3-yl)phenyl]-(3-hydroxypiperidin-1-yl)methanone]: the IC50 against RON (human) and at MET (human) was 1000 to 20000 nM each time.

As for `Nc1ncc(-c2cnn(C3CCN(C=O)CC3)c2)cc1-c1cc2c(Cl)ccc(F)c2cn1` [Example 57, 4-4-[6-Amino-5-(5-chloro-8-fluoroisoquinolin-3-yl)-pyridin-3-yl]-pyrazol-1-ylpiperidine-1-carbaldehyde], the 50% inhibitory concentration (IC50) against RON (human) lay in the range of 1000 to 20000 nM; against MET (human), 100 to 1000 nM.

For `Nc1ncc(-c2cnn(C3CCNCC3)c2)cc1-c1nc2c(F)cccc2s1` [Example 256, 3-(4-Fluorobenzothiazol-2-yl)-5-(1-piperidin-4-yl-1H-pyrazol-4-yl)-pyridin-2-ylamine], the 50% inhibitory concentration (IC50) against RON (human) is 100 to 1000 nM; on MET (human) it was no more than 100 nM.

As to `CN1C2CCC1CC(n1cc(-c3cnc(N)c(-c4nc5ccccc5s4)c3)cn1)C2` (stereo not drawn) [Example 109, 3-Benzothiazol-2-yl-5-[1-(8-methyl-8-azabicyclo[3.2.1]oct-3-yl)-1H-pyrazol-4-yl]-pyridin-2-ylamine], the IC50 on RON (human) and against MET (human) was no more than 100 nM in each case.

On to `CC(C)(C)OC(=O)NCC#Cc1cnc(N)c(-c2nc3ccccc3s2)c1` [Example 125, [3-(6-Amino-5-benzothiazol-2-ylpyridin-3-yl)-prop-2-ynyl]-carbamic acid tert-butyl ester], for which the IC50 against RON (human) was greater than 20000 nM; at MET (human), 1000 to 20000 nM.

Regarding `C[C@@H]1CN(C(=O)c2cccc(-c3cnc(N)c(-c4nc5ccccc5s4)c3)c2)C[C@H](C)O1` [Example 214, [3-(6-Amino-5-benzothiazol-2-ylpyridin-3-yl)phenyl]-(cis-2,6-dimethylmorpholin-4-yl)methanone], the half-inhibitory concentration (IC50) on RON (human) was greater than 20000 nM; on MET (human), 1000 to 20000 nM.

Turning to `Nc1ncc(-c2cnn([C@@H]3CN[C@H](C(=O)N4CCCC4)C3)c2)cc1-c1nc2ccccc2s1` [Example 156, {(2S,4S)-4-[4-(6-Amino-5-benzothiazol-2-ylpyridin-3-yl)-pyrazol-1-yl]-pyrrolidin-2-yl}-pyrrolidin-1-ylmethanone], the IC50 against RON (human) and against MET (human) was no more than 100 nM each time.

Take `NC(=O)CCn1cc(-c2cnc(N)c(-c3nc4ccccc4s3)c2)cn1` [Example 297, 3-[4-(6-Amino-5-benzothiazol-2-ylpyridin-3-yl)-pyrazol-1-yl]-propionamide]: the IC50 at RON (human) lay in the range of 1000 to 20000 nM; against MET (human) it was 100 to 1000 nM.

In the case of `N#Cc1ccc2cc(-c3cc(-c4cnn(C5CCNCC5)c4)cnc3N)ncc2c1` [Example 32, 3-[2-Amino-5-(1-piperidin-4-yl-1H-pyrazol-4-yl)-pyridin-3-yl]-isoquinoline-7-carbonitrile trihydrochloride salt], the IC50 against RON (human) and against MET (human) was 100 to 1000 nM in each case.

Turning to `Nc1ncc(-c2cnn(C3CCNCC3)c2)cc1-c1nc2cc(C(F)(F)F)ccc2s1` [Example 261, 5-(1-Piperidin-4-yl-1H-pyrazol-4-yl)-3-(5-trifluoromethylbenzothiazol-2-yl)-pyridin-2-ylamine], the IC50 against RON (human) and on MET (human) was 100 to 1000 nM in each case.
